Results from ChEMBL document CHEMBL1649335, “Discovery of {1-[4-(2-{hexahydropyrrolo[3,4-c]pyrrol-2(1H)-yl}-1H-benzimidazol-1-yl)piperidin-1-yl]cyclooctyl}methanol, systemically potent novel non-peptide agonist of nociceptin/orphanin FQ receptor as analgesic for the treatment of neuropathic pain: design, synthesis, and structure-activity …” (Bioorg Med Chem, 2010).
The source made the active and inactive calls.

Columns and labels:
Rattus norvegicus [1] = organism: Rattus norvegicus; assay: Inhibition of rat neuronal-type nicotinic acetylcholine receptor at 1 uM relative to control
in vitro = conditions: human, liver microsomes
Rattus norvegicus [2] = assay: Antiallodynic activity against von Frey hair mechanically stimulated neuropathic pain in Sprague-Dawley rat assessed as increase of response threshold at 10 mg/kg, sc after 1 hr relative to control; type: functional; conditions: route subcutaneous
Rattus norvegicus [3] = assay: Antiallodynic activity against von Frey hair mechanically stimulated neuropathic pain in Sprague-Dawley rat assessed as effect on allodynia in contralateral paw at 1 to 30 mg/kg, sc after 2 hrs; type: functional, organism-based
[4] = target: Sodium-dependent dopamine transporter (Homo sapiens) (UniProt Q01959); assay: Inhibition of human dopamine transporter at 1 uM relative to control
Sequence of Sodium-dependent dopamine transporter (Homo sapiens) (Q01959 whole entry): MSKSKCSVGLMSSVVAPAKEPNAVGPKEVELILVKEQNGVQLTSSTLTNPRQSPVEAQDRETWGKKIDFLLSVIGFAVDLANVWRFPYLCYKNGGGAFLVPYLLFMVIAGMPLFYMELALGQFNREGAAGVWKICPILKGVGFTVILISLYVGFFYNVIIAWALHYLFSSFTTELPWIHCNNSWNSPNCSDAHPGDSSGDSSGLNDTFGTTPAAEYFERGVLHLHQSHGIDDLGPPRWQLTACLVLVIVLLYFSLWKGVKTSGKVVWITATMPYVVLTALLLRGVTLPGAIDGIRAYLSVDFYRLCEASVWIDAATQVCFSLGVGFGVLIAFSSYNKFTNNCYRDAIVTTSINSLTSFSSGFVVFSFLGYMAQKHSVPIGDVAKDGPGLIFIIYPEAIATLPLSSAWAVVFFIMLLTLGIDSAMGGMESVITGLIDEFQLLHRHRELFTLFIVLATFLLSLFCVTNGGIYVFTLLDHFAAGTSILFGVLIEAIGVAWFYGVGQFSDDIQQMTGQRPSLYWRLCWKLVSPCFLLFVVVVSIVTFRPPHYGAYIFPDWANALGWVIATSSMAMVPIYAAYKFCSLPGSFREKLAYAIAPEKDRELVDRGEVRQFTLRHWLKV

Rattus norvegicus [5] = organism: Rattus norvegicus; assay: Inhibition of rat kainate receptor at 1 uM relative to control
[6] = target: Histamine H2 receptor (Cavia porcellus) (UniProt P47747); assay: Inhibition of guinea pig histamine H2 receptor at 1 uM relative to control
Sequence of Histamine H2 receptor (Cavia porcellus) (P47747 whole entry): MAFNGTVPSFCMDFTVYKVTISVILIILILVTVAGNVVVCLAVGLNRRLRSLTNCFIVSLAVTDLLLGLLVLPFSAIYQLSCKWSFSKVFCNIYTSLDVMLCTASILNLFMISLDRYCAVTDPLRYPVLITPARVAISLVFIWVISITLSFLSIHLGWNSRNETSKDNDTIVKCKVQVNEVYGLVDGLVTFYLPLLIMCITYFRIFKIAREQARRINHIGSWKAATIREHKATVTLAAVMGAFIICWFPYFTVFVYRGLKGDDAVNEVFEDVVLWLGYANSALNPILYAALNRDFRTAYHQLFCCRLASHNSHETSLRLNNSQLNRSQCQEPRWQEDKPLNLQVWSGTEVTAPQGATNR

Rattus norvegicus [7] = assay: Antiallodynic activity against von Frey hair mechanically stimulated neuropathic pain in sc dosed Sprague-Dawley rat assessed as assessed as minimum effective dose to increase of response threshold after 4 hrs; type: functional, organism-based
Rattus norvegicus [8] = assay: Antiallodynic activity against von Frey hair mechanically stimulated neuropathic pain in sc dosed Sprague-Dawley rat assessed as increase of response threshold after 30 mins; type: functional; conditions: 0.5 h
Rattus norvegicus [9] = assay: Antiallodynic activity against von Frey hair mechanically stimulated neuropathic pain in sc dosed Sprague-Dawley rat assessed as assessed as minimum effective dose to increase of response threshold after 1 hr; type: functional
Rattus norvegicus [10] = assay: Antiallodynic activity against von Frey hair mechanically stimulated neuropathic pain in intrathecally dosed Sprague-Dawley rat assessed as increase of response threshold per site after 1 hr; type: functional
[11] = target: Beta-1 adrenergic receptor (Homo sapiens) (UniProt P08588); assay: Inhibition of human beta1 adrenoceptor at 1 uM relative to control
Sequence of Beta-1 adrenergic receptor (Homo sapiens) (P08588 whole entry, looked up): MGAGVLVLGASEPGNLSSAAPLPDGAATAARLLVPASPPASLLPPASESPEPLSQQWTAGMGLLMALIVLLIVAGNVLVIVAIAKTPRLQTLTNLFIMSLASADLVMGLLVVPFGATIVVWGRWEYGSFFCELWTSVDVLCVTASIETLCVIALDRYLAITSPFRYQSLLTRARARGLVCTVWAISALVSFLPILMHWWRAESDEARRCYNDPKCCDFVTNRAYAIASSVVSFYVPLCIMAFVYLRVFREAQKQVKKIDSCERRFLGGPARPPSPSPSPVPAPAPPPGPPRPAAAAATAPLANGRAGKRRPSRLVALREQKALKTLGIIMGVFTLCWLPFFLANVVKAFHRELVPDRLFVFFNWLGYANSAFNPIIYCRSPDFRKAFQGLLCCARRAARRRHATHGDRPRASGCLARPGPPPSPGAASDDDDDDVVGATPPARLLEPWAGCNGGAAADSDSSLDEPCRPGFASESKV

Nociceptin receptor = Nociceptin receptor (Homo sapiens, UniProt P41146); assay: biochemical
Sequence of Nociceptin receptor (P41146 whole entry): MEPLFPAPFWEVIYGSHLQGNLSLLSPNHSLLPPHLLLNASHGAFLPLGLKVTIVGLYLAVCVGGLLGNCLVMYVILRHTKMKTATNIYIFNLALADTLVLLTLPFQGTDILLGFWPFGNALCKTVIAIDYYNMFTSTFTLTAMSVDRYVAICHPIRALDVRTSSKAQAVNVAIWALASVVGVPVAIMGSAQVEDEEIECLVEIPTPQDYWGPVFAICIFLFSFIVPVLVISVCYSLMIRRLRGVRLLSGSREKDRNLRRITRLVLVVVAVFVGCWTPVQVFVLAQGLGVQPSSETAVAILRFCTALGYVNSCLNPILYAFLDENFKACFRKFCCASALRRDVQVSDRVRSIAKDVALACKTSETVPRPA

Rattus norvegicus [12] = assay: Toxicity in von Frey hair mechanically stimulated neuropathic pain Sprague-Dawley rat model assessed as sedation effect at up to 30 mg/kg, sc; type: organism-based; parameters: dose 30 mg/kg, route subcutaneous; conditions: in vivo
[13] = Drug level Sprague-Dawley rat brain at 10 mg/kg, sc after […]; type: ADME, organism-based; parameters: dose 10 mg/kg, route subcutaneous; conditions: read-out: Drug uptake
Rattus norvegicus [14] = assay: Toxicity in von Frey hair mechanically stimulated neuropathic pain Sprague-Dawley rat model assessed as respiratory depression at up to 170 nmol/site, icv; type: organism-based; conditions: in vivo, icv_or_intrathecal
[15] = target: L-type calcium channel, verapamil site (Rattus norvegicus, UniProt P22002+P27732+Q02485); assay: Inhibition of rat L-type calcium channel verapamil site at 1 uM relative to control
[16] = target: Adenosine receptor A2a (Homo sapiens) (UniProt P29274); assay: Inhibition of human adenosine A2A receptor at 1 uM relative to control
Sequence of Adenosine receptor A2a (Homo sapiens) (P29274 whole entry): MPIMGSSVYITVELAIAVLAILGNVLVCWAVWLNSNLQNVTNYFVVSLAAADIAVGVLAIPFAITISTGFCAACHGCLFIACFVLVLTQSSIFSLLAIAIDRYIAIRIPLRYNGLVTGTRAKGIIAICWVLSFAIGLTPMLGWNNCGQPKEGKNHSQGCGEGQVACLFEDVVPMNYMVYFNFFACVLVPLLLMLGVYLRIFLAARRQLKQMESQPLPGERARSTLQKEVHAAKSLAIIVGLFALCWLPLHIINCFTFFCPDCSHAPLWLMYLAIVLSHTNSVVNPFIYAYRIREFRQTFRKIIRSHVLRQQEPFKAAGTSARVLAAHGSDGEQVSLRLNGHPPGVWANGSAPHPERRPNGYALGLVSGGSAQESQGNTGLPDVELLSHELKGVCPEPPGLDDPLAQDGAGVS

Rattus norvegicus [17] = assay: Antiallodynic activity against von Frey hair mechanically stimulated neuropathic pain in Sprague-Dawley rat assessed as increase of response threshold per site at 5.5 to 170 nmol/site, icv after 1 hr; type: functional, organism-based
Rattus norvegicus [18] = assay: Antiallodynic activity against von Frey hair mechanically stimulated neuropathic pain in Sprague-Dawley rat assessed as increase of response threshold at 1 to 30 mg/kg, sc; type: functional, organism-based; conditions: TDE = time-dependent effect
Homo sapiens = organism: Homo sapiens; assay: Inhibition of human muscle-type nicotinic acetylcholine receptor at 1 uM relative to control
Rattus norvegicus [19] = organism: Rattus norvegicus; assay: Inhibition of rat choline transporter at 1 uM relative to control
Rattus norvegicus [20] = assay: Antiallodynic activity against von Frey hair mechanically stimulated neuropathic pain in Sprague-Dawley rat assessed as increase of response threshold per site at 55 nmol/site administered intrathecally after 1 hr relative to control; type: functional
Rattus norvegicus [21] = assay: Antiallodynic activity against von Frey hair mechanically stimulated neuropathic pain in sc dosed Sprague-Dawley rat assessed as assessed as minimum effective dose to increase of response threshold after 2 hrs; type: functional

Question: With `OCC1(N2CCC(n3c(N4CC5CNCC5C4)nc4ccccc43)CC2)CCCCCCC1` (stereo not given) as the compound, how does the inhibition (Rattus norvegicus [1]) read?
Answer: < 10%

Question: What about the half-life at 1 µM (in vitro) of the same compound?
Answer: 45.6 min

Question: What about the Activity (Rattus norvegicus [2]) of the same compound?
Answer: 37.6%

Question: What about the Activity (Rattus norvegicus [3]) of the same compound?
Answer: inactive

Question: And the inhibition [4]?
Answer: < 10%

Question: What about the inhibition (Rattus norvegicus [5]) of the same compound?
Answer: 32%

Question: What about the inhibition [6] of the same compound?
Answer: 22%

Question: What about the MED (Rattus norvegicus [7]) of the same compound?
Answer: inactive

Question: What about the ED50 (Rattus norvegicus [8]) of the same compound?
Answer: 26.8 mg/kg

Question: And the MED (Rattus norvegicus [9])?
Answer: 10 mg/kg

Question: And the Activity (Rattus norvegicus [10])?
Answer: Dose-dependent effect

Question: What about the ED50 (Rattus norvegicus [10]) of the same compound?
Answer: >170 nmol

Question: And the inhibition [11]?
Answer: < 10%

Question: And the Ki (Nociceptin receptor)?
Answer: 1.44 nM

Question: What about the Activity (Rattus norvegicus [12]) of the same compound?
Answer: Non-toxic

Question: What about the concentration at […] [13] of the same compound?
Answer: 226 ng/mL

Question: What about the Activity (Rattus norvegicus [14]) of the same compound?
Answer: Non-toxic

Question: And the inhibition at 1 µM [15]?
Answer: < 10%

Question: And the inhibition [16]?
Answer: < 10%

Question: And the ED50 (Rattus norvegicus [17])?
Answer: inactive

Question: What about the Activity (Rattus norvegicus [18]) of the same compound?
Answer: tde

Question: What about the inhibition (Homo sapiens) of the same compound?
Answer: 21%

Question: What about the inhibition (Rattus norvegicus [19]) of the same compound?
Answer: 11%

Question: And the Activity (Rattus norvegicus [20])?
Answer: 31.1%

Question: What about the MED (Rattus norvegicus [21]) of the same compound?
Answer: 30 mg/kg
